Series [1] relates to patients with pulmonary arterial hypertension. The series is described as follows: Clinical pilot study of iloprost bolus inhalation (Example 3). Type of series: in vivo, human. The method, then: A clinical pilot study to evaluate the safety and tolerability of nebulised iloprost administered by bolus inhalation according to the invention was conducted with 4 patients. Eligible were male and female patients with pulmonary arterial hypertension in the age from 18 to 70 years having a mean pulmonary arterial blood pressure (PAP) higher than 25 mm Hg, a pulmonary vascular resistance (PVR) higher than 240 dyn*s*cm^−5, a central venous pressure (CVP) higher than 3 mm Hg, and a pulmonary capillary wedge pressure (PCWP) lower than 12 mm Hg. Excluded were patients with a contraindication for cardiac catheterisation (such as coagulopathy, bleeding disorder, acute infection, severe cardiac dysrhythmia), pregnancy, systemic systolic blood pressure below 110 mm Hg, highly impaired ventricular function with cardiac index below 1.8 L/min*m^2, and known lack of pulmonary vascular reactivity. Patients were monitored by ECG, pulse oxymetry, and non-invasive blood pressure measurement. An intracardiac catheter was introduced into the distal pulmonary artery to measure PAP, CVP, PCWP, and cardiac output. Also measured were the heart rate, systemic arterial pressure (SAP), systemic vascular resistance (SVR), central arterial and venous blood gases. After the initial determination of all parameters the reactivity of the pulmonary vasculature to oxygen (2 to 4 L/min) and nitric oxide (20 ppm) was tested. Subsequently, patients inhaled a single dose of 2.5 μg of nebulised iloprost in two consecutive breaths, using the same inhalation system and iloprost composition as described in Example 1. Haemodynamic parameters and clinical condition of the patients were assessed before and up to 30 minutes after inhalation. In the absence of adverse effects, a second inhalation manoeuvre with 4 consecutive breaths corresponding to a dose 5 μg iloprost was performed, again followed by an observation period of at least 30 minutes.

In series [2] the test system is patients suffering from pulmonary hypertension (PH). The series is described as follows: Iloprost bolus inhalation in six further patients (Example 4). In kind it is in vivo, human. The settings on record: bolus inhalation as in Example 3. The method, then: Six further patients suffering from pulmonary hypertension (PH) were treated with iloprost bolus inhalation as in Example 3.

The conditions of series [3]: cited from earlier work.
Where [4] appears, read: bolus inhalation of 2.5 μg and 5 μg, versus slow inhalation of iloprost.

The source of these data is patent US10821116B2, “Administration of iloprost as aerosol bolus” (VECTURA GMBH, priority 2011, dated 2020).

Structures are written as SMILES. Entries after “also recorded” stand apart in the source; their conditions may differ. Read-outs that look alike come from different tables or passages of the source.

For the compound `CC#CCC(C)[C@H](O)/C=C/[C@@H]1[C@H]2C/C(=C/CCCC(=O)O)C[C@H]2C[C@H]1O` (stereo partly drawn) [iloprost, 5-{(E) -(1S,5S,6R,7R)-7-hydroxy-6[(E)-(3S, 4RS)-3-hydroxy-4-methyl-1-octen-6-inyl]-bi-cyclo[3.3.0]octan-3-ylidene}pentanoic acid], in series [1] (FIG. 1, n=4, Mann-Whitney rank-sum test), the “mean pulmonary arterial pressure (PAP) after bolus inhalation versus baseline, p” value is given as below 0.05. Besides, the “mean systemic arterial pressure (SAP) after bolus inhalation versus baseline, significance” value in series [1] (FIG. 3, n=4, Mann-Whitney rank-sum test) is “not significant”. Moreover, in series [1] (FIG. 4, n=4, Mann-Whitney rank-sum test), the “systemic vascular resistance (SVR) after bolus inhalation versus baseline, significance” value is reported as “not significant”. Further, the “tolerability of the treatment” value in series [1] (bolus inhalation of 2.5 μg (2 breaths) and 5 μg (4 breaths), 4 PAH patients) is listed as “all patients tolerated the treatment well; also recorded: well-tolerated by patients”. Besides, the “systemic side effects (SAP and SVR changes)” value in series [1] (setting [4]) was “comparable to those observed after conventional iloprost treatment”. Moreover, the “therapeutic pulmonary vascular effects (PAP and PVR changes)” value in series [1] (setting [4]) is recorded as “comparable to those observed after conventional iloprost treatment”. In addition, in series [2] (six PH patients), the adverse effects entry was “no adverse effects were observed other than the SAP and SVR changes which were mild”. In addition, in series [2] (six PH patients (PAH, iPAH, portopulmonary, CTEPH)), the pulmonary vascular effects result is reported as “very comparable to those found in Example 3”. Moreover, the solubility result in series [3] (acetone) was “soluble”; in series [3] (aqueous buffer at pH 3), “very slightly soluble”; in series [3] (aqueous buffer at pH 5), “very slightly soluble”; in series [3] (aqueous buffer at pH 7) it was “soluble”; in series [3] (aqueous buffer pH 9), “sparingly soluble”; in series [3] (distilled water) it was “very slightly soluble”. Moreover, the solubility entry in series [3] (ethanol), in series [3] (ethyl acetate) and in series [3] (methanol) was “soluble” each time. Also, the aqueous solubility result in series [3] (water) was “rather poor”.
